Experimental data from the METLIN SMRT retention time set (Domingo-Almenara et al. 2019).

Assay: gradient 5% acetonitrile 3 min, to 50% in 2 min, to 85% in 15 min, held 3 min, 100 µL/min
Conditions: column: Zorbax Extend-C18 2.1 x 50 mm; eluents: water / acetonitrile, 0.1% formic acid
Outline: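 Retention times come from adduct peaks that were picked computationally and then checked by hand. The standards, pure and pooled in mixtures of ~100 molecules, were run on a Zorbax Extend-C18 column (2.1 × 50 mm, 1.8 μm) at 100 μL/min with water and acetonitrile, each with 0.1% formic acid. Detection was by quadrupole time-of-flight mass spectrometry in positive and negative ionization mode, with a dead volume of 40 μL and a dwell volume of 900 μL.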

Compound	RP-LC retention time
Cc1cc(C)c2c(N)c(C(=O)Nc3cccc4cccnc34)sc2n1	1080 s
Cc1nc(-c2ccc(C(=O)N3CCCc4ccccc43)cc2)no1	929 s
CCC(=O)Nc1ccc(C2(C(=O)NCCC(C)C)CCCCC2)cc1	936 s
O=C(c1ccc(F)c(F)c1)N1CCc2nc(-c3ccc(Cl)cc3)ncc2C1	1020 s
CCc1ccc(OCc2nc(CCN(C)C(=O)Nc3cc(OC)ccc3OC)no2)cc1	1060 s
O=C(NCCc1csc(-c2cccc(F)c2)n1)c1cccs1	905 s
CCc1cc(=O)n(CC(=O)Nc2ccc(Cl)cc2)c(N)n1	618 s
COCCC(=O)Nc1ccc2c(c1)Sc1ncccc1C(=O)N2C	612 s
CCCCNC(=O)c1cccc2c1CCN2C(=O)C1CC1	764 s
CS(=O)(=O)N1CCCC(C(=O)NC2CCCCC2)CCNC(=O)CC1 (stereo unspecified)	633 s
Cc1ccn2c(=O)c(NC(=O)c3ccco3)c(C)nc2c1	544 s
CCCc1noc(-c2ccnc(-n3ncc(C(=O)NCC)c3C)c2)n1	828 s
CCn1ncc(N2CCCC(CC(=O)N3CCC4(CC3)OCCO4)C2)cc1=O (stereo unspecified)	646 s
COc1ccc(N2CCN(C(=O)c3ccc4c(c3)CC(=O)N4C)CC2)cc1	801 s
CCc1nn2c(CNC(=O)c3ccccc3Cl)c(C)nc2s1	650 s
Cc1cc(C)n(CC(=O)N2CCN(c3ccccc3F)CC2)c1-c1nc(C2CC2)no1	971 s
O=C(CC1CCCC1)N1CCCC(c2nc(-c3ccccc3)n[nH]2)C1 (stereo unspecified)	801 s
COc1cc(NS(=O)(=O)c2ccc(-c3nnc(C4CCC4)o3)o2)cc(OC)c1	886 s
CCC(=O)N1CCCC1c1nc2ccccc2n1CC(=O)N1CCCC1 (stereo unspecified)	584 s
CCc1nnc2cc(N3CCN(S(=O)(=O)c4ccc(C)cc4)CC3)cnn12	732 s
CCN(CC)C(=O)c1ccc2c(c1)nnn2CCNC(=O)NC(C)(C)C	658 s
CCCNC(=O)Cn1c(CNC(C)=O)nc2ccccc21	575 s
CC(C)n1c(N2CCN(C(=O)c3ccc(F)c(F)c3)CC2)cc(=O)n(C(C)C)c1=O	867 s

Compound	RP-LC retention time
O=C(CCCN1C(=O)c2cccnc2Sc2ccccc21)N1CCN(c2ccccn2)CC1	592 s
COCCNC(=O)C1(C)CCC(=O)N1CCc1c[nH]c2ccccc12 (stereo unspecified)	653 s
CNC(=O)N1CCCC(c2cccc(C(=O)NCc3ccc(Br)cc3)c2)C1 (stereo unspecified)	830 s
CC(C)NC(=O)Nc1cccc(Cl)c1	854 s
CC(C)NC(=O)Nc1cccnc1N1CCOCC1	863 s
O=C(Nc1ccc2c(c1)OCCO2)N1CCC2(CCCCO2)CC1	712 s
Cc1nc(-c2ccc3c(c2)n(CC(=O)NC2CCCC2)c(=O)n3C(C)C)no1	780 s
COc1ccc(CCC(=O)N2CCC(n3nnc4cc(F)ccc4c3=O)CC2)cc1	784 s
Cc1ccc(CNS(=O)(=O)c2cc(-c3[nH]ncc3C(=O)N(C)C)oc2C)cc1	712 s
CCN1C(=O)c2cccnc2Sc2cc(NC(=O)C3CC3)ccc21	685 s
COc1ccc(S(=O)(=O)NCc2ccc3c(c2)CCN3C(=O)c2ccccc2)cc1	904 s
COc1ccc(Cl)cc1S(=O)(=O)NCCc1cn(C)c2ncccc12	764 s
COc1cc(OC)cc(C(=O)N2CCN(c3cc(C(C)C)n4cnnc4n3)CC2)c1	576 s
Cc1ccc(S(=O)(=O)N2C(=O)CCC2C(=O)NC2CCCCC2)cc1C (stereo unspecified)	916 s
O=C(c1cc2ccccc2[nH]1)N1CCCC1	794 s
CN(C)C(=O)c1csc(S(=O)(=O)N2CCC(C(=O)Nc3ccccc3)CC2)c1	752 s
COC(=O)c1c(NCc2ccccc2Cl)c2ccccc2[nH]c1=O	766 s
O/N=C(\CC(O)(C(F)(F)F)C(F)(F)F)c1cccc(Cl)c1	944 s
Cc1ccc2nc(C)c(NC(=O)CSCc3ccccc3)c(=O)n2c1	662 s
O=C(Nc1cccc(-c2noc(C3CCC3)n2)c1)c1cccs1	1060 s
COC(=O)CNC(=O)Nc1cc(F)c2nc(N3CCOCC3)ccc2c1	620 s
COC(=O)c1c(NCCN2CCC(C)CC2)c2cccc(Cl)c2[nH]c1=O	583 s
Cc1cc(Cl)ccc1OCC(=O)Nc1nc(-c2ccc(F)cc2)cs1	1190 s
